Test results as given in US11447525B2 (NIIGATA UNIVERSITY, priority 2018, dated 2022).
“Also recorded” adds a separate entry of the source. Non-standard residues stand in square brackets, D forms with d. Residues, ends and D or L forms follow the SMILES beside them. No end group written: not given here. *: point of attachment. 5FAM = O=C1OC2(c3ccc(O)cc3Oc3cc(O)ccc32)c2ccc(C(=O)*)cc21; NMeR = CN[C@@H](CCCNC(=N)N)C(=O)O

Experiments:
[1] = system: BxPC3 cells, PK-8 cells, AsPC1 cells and MIA-Paca2 cells (PDAC); test: Accumulation of PCPP11 and partially deleted peptides in cells (Reference Example 3); type: cell-based, human; settings: for fluorescence detected (absorbed fluorescence): same method as Test Example 2 (2 μM, 37° C., 2 hours); for order of the strength of fluorescence in the pancreatic cancer cells: same method as Test Example 2
Experimental: Test were conducted confirming the accumulation of PCPP11 and partially deleted peptides thereof in BxPC3 cells, PK-8 cells, AsPC1 cells and MIA-Paca2 cells (all cell lines derived from human invasive pancreatic ductal adenocarcinoma (PDAC)) and in H2110 cells (lung adenocarcinoma cells). The peptides shown below in Table 10 were used.
Using the same method as Test Example 2, each peptide was added to each of the cells and then observed under a microscope. In FIG. 16, “full length” indicates the cells to which FAM-PCPP11 was added, “trunc-ver1” indicates cells to which a trunc-ver1-PCPP11 was added, “trunc-ver2” indicates cells to which a trunc-ver2-PCPP11 was added, and “trunc-ver3” indicates cells to which a trunc-ver3-PCPP11 was added.

[2] = human blood plasma having a concentration of 50% by mass; settings: up to 120 minutes
[3] = Degradation test by human blood plasma, MALDI-TOFMS analysis; type: in vitro ADME; settings: 50% by mass human blood plasma; 120 min; read-out: degradation resistance (proportion of the peptide retained without degradation)
Experimental: Specifically, a peptide composed of the amino acid sequence represented by SEQ ID NO: 1 (hereafter sometimes referred to as “PCPP11”) was added to human blood plasma having a concentration of 50% by mass, the mixture was sampled immediately after starting the degradation test (after 0 minutes), and then after 5 minutes, after 10 minutes, after 20 minutes, after 30 minutes, after 60 minutes and after 120 minutes, and the samples were analyzed by MALDI-TOFMS (Matrix Assisted Laser Desorption/Ionization-Time Of Flight Mass Spectrometry). In Table 2, “UK” is an abbreviation for “unknown”. Further, the No. shown for each peptide in Table 2 corresponds with the numerical value recorded on the peaks of the graphs shown in FIG. 1.
Each of the peptides described above was added to human blood plasma having a concentration of 50% by mass, the resulting mixture was sampled immediately after starting the degradation test (after 0 minutes), and then after 5 minutes, after 10 minutes, after 20 minutes, after 30 minutes, after 60 minutes and after 120 minutes, and the samples were analyzed by MALDI-TOFMS. The results are shown in FIGS. 2 to 6 and Tables 4 to 6 shown below. Furthermore, the data for the degradation test by human blood plasma using PCPP11 from Reference Example 1 and the degradation tests by human blood plasma using each of the above peptides are collated in FIG. 7 and Table 7. The SEQ ID NO listed for the FAM-labeled peptide represents the SEQ ID NO of the peptide portion. Further, the No. shown for each peptide in Tables 4 to 6 corresponds with the numerical value recorded on the peaks of the graphs shown in FIGS. 2 to 6. In each table, in those cases where the numerical values are shown separated into an upper row and a lower row, the upper row value indicates the proportion (%) of peak area for two or more peptides relative to the total peak area in the MALDI-TOFMS analysis. On the other hand, the lower row value indicates the proportion (%) of each peptide when the peak area for the two or more peptides is deemed to be 100%. Moreover, for example, for the peptide No. 9 shown in Table 4, the left-side “70.0%” indicates the proportion (%) of the peptide No. 9 when the total peak area for the peptides No. 9 to 11 is deemed to be 100%, whereas the right-side “65%” indicates the proportion (%) of the peptide No. 9 relative to the total peak area in the MALDI-TOFMS analysis. This system is also used in the following tables.

Compound: C[C@@H](O)[C@H](NC(=O)[C@@H](NC(=O)[C@@H]1CCCN1C(=O)c1ccc2c(c1)C(=O)OC21c2ccc(O)cc2Oc2cc(O)ccc21)[C@@H](C)O)C(=O)N[C@@H](Cc1c[nH]c2ccccc12)C(=O)N[C@@H](Cc1c[nH]cn1)C(=O)O [FAM-trunc-ver5-PCPP11, [FAM]-PTTWH] (5FAM-PTTWH-OH; C-terminus assumed)
- fluorescence detected (absorbed fluorescence) [1]: almost no fluorescence was observed

Compound: R-mR-PTTWHKP-G-RRPTTWHKP (H-R[NMeR]PTTWHKPGRRPTTWHKP-OH; N-terminus and C-terminus assumed; SMILES C[C@@H](O)[C@H](NC(=O)[C@@H](NC(=O)[C@@H]1CCCN1C(=O)[C@H](CCCNC(=N)N)NC(=O)[C@H](CCCNC(=N)N)NC(=O)CNC(=O)[C@@H]1CCCN1C(=O)[C@H](CCCCN)NC(=O)[C@H](Cc1c[nH]cn1)NC(=O)[C@H](Cc1c[nH]c2ccccc12)NC(=O)[C@@H](NC(=O)[C@@H](NC(=O)[C@@H]1CCCN1C(=O)[C@H](CCCNC(=N)N)N(C)C(=O)[C@@H](N)CCCNC(=N)N)[C@@H](C)O)[C@@H](C)O)[C@@H](C)O)C(=O)N[C@@H](Cc1c[nH]c2ccccc12)C(=O)N[C@@H](Cc1c[nH]cn1)C(=O)N[C@@H](CCCCN)C(=O)N1CCC[C@H]1C(=O)O)
- not cleaved [2]: 100% after 120 minutes

Compound: C[C@@H](O)[C@H](NC(=O)[C@@H](NC(=O)[C@@H]1CCCN1C(=O)[C@H](CCCNC(=N)N)NC(=O)c1ccc2c(c1)C(=O)OC21c2ccc(O)cc2Oc2cc(O)ccc21)[C@@H](C)O)C(=O)N[C@@H](Cc1c[nH]c2ccccc12)C(=O)N[C@@H](Cc1c[nH]cn1)C(=O)N[C@@H](CCCCN)C(=O)N1CCC[C@H]1C(=O)O [FAM-trunc-ver1-PCPP11] (5FAM-RPTTWHKP-OH; C-terminus assumed)
- order of the strength of fluorescence in the pancreatic cancer cells [1]: full-length≥trunc-ver3>trunc-ver1>>trunc-ver2

Compound: R-mR-PTTWHKP-G-pkhwttprr (H-R[NMeR]PTTWHKPG[dP][dK][dH][dW][dT][dT][dP][dR][dR]-OH; N-terminus and C-terminus assumed; SMILES C[C@H](O)[C@@H](NC(=O)[C@@H](Cc1c[nH]c2ccccc12)NC(=O)[C@@H](Cc1c[nH]cn1)NC(=O)[C@@H](CCCCN)NC(=O)[C@H]1CCCN1C(=O)CNC(=O)[C@@H]1CCCN1C(=O)[C@H](CCCCN)NC(=O)[C@H](Cc1c[nH]cn1)NC(=O)[C@H](Cc1c[nH]c2ccccc12)NC(=O)[C@@H](NC(=O)[C@@H](NC(=O)[C@@H]1CCCN1C(=O)[C@H](CCCNC(=N)N)N(C)C(=O)[C@@H](N)CCCNC(=N)N)[C@@H](C)O)[C@@H](C)O)C(=O)N[C@@H](C(=O)N1CCC[C@@H]1C(=O)N[C@H](CCCNC(=N)N)C(=O)N[C@H](CCCNC(=N)N)C(=O)O)[C@H](C)O)
- not cleaved [2]: no degradation products within 120 minutes; 100% at 120 min

Compound: RRPTTWHKP
- cleaved bond [2]: arginine-arginine, 5 min
- fragment found [2]: RPTTWHKP and RRPTTWH and RPTTWH and TTWHKP and TTWH and TWH, 30 min and WH, 60 min

Compound: C[C@@H](O)[C@H](NC(=O)[C@@H](NC(=O)[C@@H]1CCCN1C(=O)[C@H](CCCNC(=N)N)NC(=O)[C@H](CCCNC(=N)N)NC(=O)c1ccc2c(c1)C(=O)OC21c2ccc(O)cc2Oc2cc(O)ccc21)[C@@H](C)O)C(=O)N[C@@H](Cc1c[nH]c2ccccc12)C(=O)N[C@@H](Cc1c[nH]cn1)C(=O)O [FAM-trunc-ver3-PCPP11, [FAM]-RRPTTWH] (5FAM-RRPTTWH-OH; C-terminus assumed)
- order of the strength of fluorescence in the pancreatic cancer cells [1]: full-length≥trunc-ver3>trunc-ver1>>trunc-ver2

Compound: C[C@@H](O)[C@H](NC(=O)[C@@H](NC(=O)[C@@H]1CCCN1C(=O)[C@H](CCCNC(=N)N)NC(=O)c1ccc2c(c1)C(=O)OC21c2ccc(O)cc2Oc2cc(O)ccc21)[C@@H](C)O)C(=O)N[C@@H](Cc1c[nH]c2ccccc12)C(=O)O [FAM-trunc-ver4-PCPP11, [FAM]-RPTTW] (5FAM-RPTTW-OH; C-terminus assumed)
- fluorescence detected (absorbed fluorescence) [1]: almost no fluorescence was observed

Compound: [FAM]-RRPTTWHKP (5FAM-RRPTTWHKP-OH; C-terminus assumed; SMILES C[C@@H](O)[C@H](NC(=O)[C@@H](NC(=O)[C@@H]1CCCN1C(=O)[C@H](CCCNC(=N)N)NC(=O)[C@H](CCCNC(=N)N)NC(=O)c1ccc2c(c1)C(=O)OC21c2ccc(O)cc2Oc2cc(O)ccc21)[C@@H](C)O)C(=O)N[C@@H](Cc1c[nH]c2ccccc12)C(=O)N[C@@H](Cc1c[nH]cn1)C(=O)N[C@@H](CCCCN)C(=O)N1CCC[C@H]1C(=O)O)
- fragment found [2]: [FAM]-RRPTTWH, 10 min

Compound: RRPTTWHKP-G-RRPTTWHKP (RRPTTWHKPGRRPTTWHKP)
- fragment found [2]: TTWHKP-G-RRPTTWHKP, 60 min; also recorded: RPTTWHKP-G-RRPTTWHKP, 20 min

Compound: C[C@@H](O)[C@H](NC(=O)c1ccc2c(c1)C(=O)OC21c2ccc(O)cc2Oc2cc(O)ccc21)C(=O)N[C@H](C(=O)N[C@@H](Cc1c[nH]c2ccccc12)C(=O)N[C@@H](Cc1c[nH]cn1)C(=O)N[C@@H](CCCCN)C(=O)N1CCC[C@H]1C(=O)O)[C@@H](C)O [FAM-trunc-ver2-PCPP11, [FAM]-TTWHKP] (5FAM-TTWHKP-OH; C-terminus assumed)
- order of the strength of fluorescence in the pancreatic cancer cells [1]: full-length≥trunc-ver3>trunc-ver1>>trunc-ver2
- fluorescence detected (absorbed fluorescence) [1]: marked reduction in absorbed fluorescence

Compound: RRPTTWHKP-G-RRPTTWHKP-G-RRPTTWHKP (RRPTTWHKPGRRPTTWHKPGRRPTTWHKP)
- not cleaved [2]: no degradation products within 120 minutes; 100% at 120 min

Compound: RRPTTWHKP-G-pkhwttprr (H-RRPTTWHKPG[dP][dK][dH][dW][dT][dT][dP][dR][dR]-OH; N-terminus and C-terminus assumed; SMILES C[C@H](O)[C@@H](NC(=O)[C@@H](Cc1c[nH]c2ccccc12)NC(=O)[C@@H](Cc1c[nH]cn1)NC(=O)[C@@H](CCCCN)NC(=O)[C@H]1CCCN1C(=O)CNC(=O)[C@@H]1CCCN1C(=O)[C@H](CCCCN)NC(=O)[C@H](Cc1c[nH]cn1)NC(=O)[C@H](Cc1c[nH]c2ccccc12)NC(=O)[C@@H](NC(=O)[C@@H](NC(=O)[C@@H]1CCCN1C(=O)[C@H](CCCNC(=N)N)NC(=O)[C@@H](N)CCCNC(=N)N)[C@@H](C)O)[C@@H](C)O)C(=O)N[C@@H](C(=O)N1CCC[C@@H]1C(=O)N[C@H](CCCNC(=N)N)C(=O)N[C@H](CCCNC(=N)N)C(=O)O)[C@H](C)O)
- fragment found [2]: RPTTWHKP-G-pkhwttprr, Start; also recorded: TTWHKP-G-pkhwttprr, Start

Compound: C[C@@H](O)[C@H](NC(=O)[C@@H](NC(=O)[C@@H]1CCCN1C(=O)[C@H](CCCNC(=N)N)NC(=O)[C@H](CCCNC(=N)N)NC(=O)c1ccc2c(c1)C(=O)OC21c2ccc(O)cc2Oc2cc(O)ccc21)[C@@H](C)O)C(=O)N[C@@H](Cc1c[nH]c2ccccc12)C(=O)N[C@@H](Cc1c[nH]cn1)C(=O)N[C@@H](CCCCN)C(=O)N1CCC[C@H]1C(=O)O [No. 13, reference compound] (5FAM-RRPTTWHKP-OH; C-terminus assumed)
- remaining at 2 h [3]: 29%
- order of the strength of fluorescence in the pancreatic cancer cells [1]: full-length≥trunc-ver3>trunc-ver1>>trunc-ver2
